In ChEMBL document CHEMBL3045157, “Synthesis and evaluation of in vitro antitubercular activity and antimicrobial activity of some novel 4H-chromeno[2,3-d]pyrimidine via 2-amino-4-phenyl-4H-chromene-3-carbonitriles” (2011):
≈ marks a conversion by molar mass, not a printed value.

Key:
Assay type in all cases: functional
[1] = system: Aspergillus niger; experiment: Antifungal activity against Aspergillus niger MTCC 282 after 24 hr by serial dilution method
[2] = system: Staphylococcus aureus; experiment: Antibacterial activity against Staphylococcus aureus ATCC 25923 after 24 hr by serial dilution method; settings: ATCC 25923, 24 h
[3] = system: Streptococcus pyogenes; experiment: Antibacterial activity against Streptococcus pyogenes MTCC 443 after 24 hr by serial dilution method; settings: MTCC 443, 24 h
[4] = system: Pseudomonas aeruginosa; experiment: Antibacterial activity against Pseudomonas aeruginosa MTCC 441 after 24 hr by serial dilution method; settings: MTCC 441, 24 h
[5] = system: Escherichia coli; experiment: Antibacterial activity against Escherichia coli ATCC 25922 after 24 hr by serial dilution method; settings: ATCC 25922, 24 h
[6] = system: Mycobacterium tuberculosis; experiment: Antitubercular activity against Mycobacterium tuberculosis H37Rv by agar microdilution method

Compound	MIC ([1]; MTCC 282, 24 h) [µg/mL]	MIC [2] [µg/mL]	MIC [3] [µg/mL]	MIC [4] [µg/mL]	MIC [5] [µg/mL]	MIC [6] [µg/mL]	MIC [1] [µg/mL]
O=c1[nH]cnc2c1C(c1ccccc1)c1ccccc1O2 (stereo not given)	500 (≈ 1810 µM)	250 (≈ 905 µM)	500 (≈ 1810 µM)	250 (≈ 905 µM)	250 (≈ 905 µM)	500 (≈ 1810 µM)	
O=C(O)c1cn(C2CC2)c2cc(N3CCNCC3)c(F)cc2c1=O [CIPROFLOXACIN]		50 (≈ 151 µM)	50 (≈ 151 µM)		25 (≈ 75.4 µM)		
S=c1[nH]c2c(c(=S)[nH]1)C(c1ccccc1)c1c(ccc3ccccc13)O2 (stereo not given)	500 (≈ 1340 µM)	125 (≈ 334 µM)	250 (≈ 668 µM)	125 (≈ 334 µM)	250 (≈ 668 µM)	100 (≈ 267 µM)	
Nc1nc(=O)[nH]c2c1C(c1ccccc1)c1ccc3ccccc3c1O2 (stereo not given)	500 (≈ 1460 µM)	125 (≈ 366 µM)	125 (≈ 366 µM)	250 (≈ 732 µM)	500 (≈ 1460 µM)	1000 (≈ 2930 µM)	
Nc1nc(=S)[nH]c2c1C(c1ccccc1)c1ccc3cccnc3c1O2 (stereo not given)	500 (≈ 1390 µM)	125 (≈ 349 µM)	250 (≈ 697 µM)	62.5 (≈ 174 µM)	62.5 (≈ 174 µM)	500 (≈ 1390 µM)	
O=c1[nH]cnc2c1C(c1ccccc1)c1ccc3cccnc3c1O2 (stereo not given)	500 (≈ 1530 µM)	125 (≈ 382 µM)	250 (≈ 764 µM)	125 (≈ 382 µM)	250 (≈ 764 µM)	500 (≈ 1530 µM)	
S=c1[nH]c2c(c(=S)[nH]1)C(c1ccccc1)c1ccc3ccccc3c1O2 (stereo not given)	500 (≈ 1340 µM)	125 (≈ 334 µM)	250 (≈ 668 µM)	250 (≈ 668 µM)	250 (≈ 668 µM)	500 (≈ 1340 µM)	
Nc1nc(=O)[nH]c2c1C(c1ccccc1)c1ccc(O)cc1O2 (stereo not given)	250 (≈ 814 µM)	125 (≈ 407 µM)	250 (≈ 814 µM)	125 (≈ 407 µM)	250 (≈ 814 µM)	125 (≈ 407 µM)	
O=c1[nH]cnc2c1C(c1ccccc1)c1ccc3ccccc3c1O2 (stereo not given)	1000 (≈ 3060 µM)	62.5 (≈ 192 µM)	62.5 (≈ 192 µM)	250 (≈ 766 µM)	125 (≈ 383 µM)	125 (≈ 383 µM)	
CC1(C)S[C@@H]2[C@H](NC(=O)[C@H](N)c3ccccc3)C(=O)N2[C@H]1C(=O)O [AMPICILLIN]		100 (≈ 286 µM)	250 (≈ 715 µM)	100 (≈ 286 µM)	100 (≈ 286 µM)		
Nc1nc(=S)[nH]c2c1C(c1ccccc1)c1ccccc1O2 (stereo not given)	125 (≈ 407 µM)	250 (≈ 813 µM)	250 (≈ 813 µM)	125 (≈ 407 µM)	125 (≈ 407 µM)	500 (≈ 1630 µM)	
Nc1nc(=O)[nH]c2c1C(c1ccccc1)c1ccccc1O2 (stereo not given)	500 (≈ 1720 µM)	125 (≈ 429 µM)	125 (≈ 429 µM)	62.5 (≈ 215 µM)	62.5 (≈ 215 µM)	500 (≈ 1720 µM)	
Oc1ccc2c(c1)Oc1[nH]c(=S)[nH]c(=S)c1C2c1ccccc1 (stereo not given)	1000 (≈ 2940 µM)	62.5 (≈ 184 µM)	62.5 (≈ 184 µM)	250 (≈ 734 µM)	125 (≈ 367 µM)	200 (≈ 587 µM)	
Nc1nc(=S)[nH]c2c1C(c1ccccc1)c1ccc(O)cc1O2 (stereo not given)	125 (≈ 387 µM)	500 (≈ 1550 µM)	250 (≈ 773 µM)	125 (≈ 387 µM)	250 (≈ 773 µM)	500 (≈ 1550 µM)	
O=c1[nH]cnc2c1C(c1ccccc1)c1ccc(O)cc1O2 (stereo not given)	1000 (≈ 3420 µM)	500 (≈ 1710 µM)	500 (≈ 1710 µM)	250 (≈ 855 µM)	62.5 (≈ 214 µM)	62.5 (≈ 214 µM)	
S=c1[nH]c2c(c(=S)[nH]1)C(c1ccccc1)c1ccc3cccnc3c1O2 (stereo not given)	500 (≈ 1330 µM)	62.5 (≈ 166 µM)	62.5 (≈ 166 µM)	125 (≈ 333 µM)	125 (≈ 333 µM)	200 (≈ 533 µM)	
S=c1[nH]c2c(c(=S)[nH]1)C(c1ccccc1)c1ccccc1O2 (stereo not given)	1000 (≈ 3080 µM)	500 (≈ 1540 µM)	500 (≈ 1540 µM)	250 (≈ 771 µM)	250 (≈ 771 µM)	500 (≈ 1540 µM)	
Nc1nc(=O)[nH]c2c1C(c1ccccc1)c1c(ccc3ccccc13)O2 (stereo not given)	250 (≈ 732 µM)	62.5 (≈ 183 µM)	62.5 (≈ 183 µM)	500 (≈ 1460 µM)	250 (≈ 732 µM)	250 (≈ 732 µM)	
NYSTATIN							100
CO[C@H]1/C=C/O[C@@]2(C)Oc3c(C)c(O)c4c(O)c(c(/C=N/N5CCN(C)CC5)c(O)c4c3C2=O)NC(=O)/C(C)=C\C=C\[C@H](C)[C@H](O)[C@@H](C)[C@@H](O)[C@@H](C)[C@H](OC(C)=O)[C@@H]1C [RIFAMPIN]						40 (≈ 48.6 µM)	
Nc1nc(=O)[nH]c2c1C(c1ccccc1)c1ccc3cccnc3c1O2 (stereo not given)	250 (≈ 730 µM)	125 (≈ 365 µM)	125 (≈ 365 µM)	500 (≈ 1460 µM)	500 (≈ 1460 µM)	125 (≈ 365 µM)	
Nc1nc(=S)[nH]c2c1C(c1ccccc1)c1c(ccc3ccccc13)O2 (stereo not given)	1000 (≈ 2800 µM)	250 (≈ 699 µM)	500 (≈ 1400 µM)	500 (≈ 1400 µM)	500 (≈ 1400 µM)	1000 (≈ 2800 µM)	
O=c1[nH]cnc2c1C(c1ccccc1)c1c(ccc3ccccc13)O2 (stereo not given)	500 (≈ 1530 µM)	125 (≈ 383 µM)	125 (≈ 383 µM)	125 (≈ 383 µM)	125 (≈ 383 µM)	125 (≈ 383 µM)	
COC1=CC(=O)C[C@@H](C)[C@]12Oc1c(Cl)c(OC)cc(OC)c1C2=O [GRISEOFULVIN]	100 (≈ 283 µM)						
Nc1nc(=S)[nH]c2c1C(c1ccccc1)c1ccc3ccccc3c1O2 (stereo not given)	1000 (≈ 2800 µM)	500 (≈ 1400 µM)	500 (≈ 1400 µM)	125 (≈ 350 µM)	500 (≈ 1400 µM)	1000 (≈ 2800 µM)	
